# ChEMBL document CHEMBL5303304, “EUbOPEN Chemogenomics Library - IncuCyte” (2023)
# Columns and labels:
# Format in all cases: toxicity, cell-based
# U2OS = assay: Incucyte cell viability with U2OS; details: human, 10 µM, compound concentration 10 uM
# HEK-293T = assay: Incucyte cell viability with HEK293T; details: human, 10 µM, compound concentration 10 uM
# Fibroblast = assay: Incucyte cell viability with human fibroblast; details: 10 µM, compound concentration 10 uM
# Also: unitless GR value; below 1 slowed growth and below 0 cell loss.
SMILES,"Growth Rate (U2OS; 6 h, replicate number 1)","Growth Rate (U2OS; 12 h, replicate number 2)","Growth Rate (U2OS; 18 h, replicate number 1)","Growth Rate (U2OS; 24 h, replicate number 1)","Growth Rate (U2OS; 24 h, replicate number 2)","Growth Rate (HEK-293T; 0 h, replicate number 2)","Growth Rate (HEK-293T; 12 h, replicate number 1)","Growth Rate (HEK-293T; 18 h, replicate number 1)","Growth Rate (HEK-293T; 18 h, replicate number 2)","Growth Rate (HEK-293T; 24 h, replicate number 1)","Growth Rate (HEK-293T; 24 h, replicate number 2)","Growth Rate (Fibroblast; 0 h, replicate number 1)","Growth Rate (Fibroblast; 12 h, replicate number 2)","Growth Rate (Fibroblast; 18 h, replicate number 1)","Growth Rate (Fibroblast; 18 h, replicate number 2)","Growth Rate (Fibroblast; 24 h, replicate number 1)","Growth Rate (Fibroblast; 24 h, replicate number 2)","Growth Rate (U2OS; 0 h, replicate number 2)","Growth Rate (Fibroblast; 0 h, replicate number 2)","Growth Rate (Fibroblast; 6 h, replicate number 1)",further results
Cc1cc(C)cc(C(=O)NOCCCCCC(=O)NO)c1,0.62,0.58,0.71,0.26,0.22,0.89,0.34,0.12,0.44,0.14,0.28,-0.28,0.86,-0.74,0.23,-0.33,0.51,,,,"Growth Rate (U2OS; 6 h, replicate number 2): 0.86; Growth Rate (U2OS; 18 h, replicate number 2): 0.5; Growth Rate (HEK-293T; 12 h, replicate number 2): 0.82; Growth Rate (Fibroblast; 6 h, replicate number 2): -0.16; Growth Rate (Fibroblast; 12 h, replicate number 1): -0.96"
CCCCNc1ncc2c(-c3ccc(CN4CCN(C)CC4)cc3)cn([C@H]3CC[C@H](O)CC3)c2n1,,0.4,0.13,-0.14,-0.3,0.42,-0.54,-0.43,-0.41,-0.3,-0.28,,0.3,-0.08,-0.25,-0.18,-0.33,0.17,-0.9,,"Growth Rate (U2OS; 18 h, replicate number 2): -0.13; Growth Rate (HEK-293T; 6 h, replicate number 1): -0.33; Growth Rate (HEK-293T; 6 h, replicate number 2): -0.21; Growth Rate (HEK-293T; 12 h, replicate number 2): -0.55; Growth Rate (Fibroblast; 12 h, replicate number 1): 0.6"
CC(C)c1nc2c(c3c1[C@H](c1ccc(C(F)(F)F)cc1)OC31CCOCC1)[C@H](O)CC(C)(C)C2,0.38,0.84,0.93,0.88,,-0.1,0.02,0.41,0.84,0.62,0.94,-1,-0.47,-0.17,-0.05,0.08,0.1,,,-0.78,"Growth Rate (U2OS; 0 h, replicate number 1): -0.17; Growth Rate (U2OS; 12 h, replicate number 1): 0.82; Growth Rate (HEK-293T; 6 h, replicate number 1): -0.63; Growth Rate (Fibroblast; 6 h, replicate number 2): -0.98; Growth Rate (Fibroblast; 12 h, replicate number 1): -0.62"
Nc1nc(-c2nn(Cc3ccccc3F)c3ncccc23)ncc1C1CC1,0.69,,,0.68,0.71,0.14,,,,,,,,0.69,,0.73,0.8,,-0.93,0.35,"Growth Rate (U2OS; 18 h, replicate number 2): 0.87"
O=C([O-])c1cc2cc(Cc3cccnc3)ccc2o1.[Na+],0.77,0.98,1,0.71,,0.2,0.56,,,,,,0.64,,,,,,,0.42,"Growth Rate (U2OS; 0 h, replicate number 1): -0.13; Growth Rate (U2OS; 12 h, replicate number 1): 0.4; Growth Rate (HEK-293T; 6 h, replicate number 1): 0.1; Growth Rate (HEK-293T; 6 h, replicate number 2): 0.83"
CC[C@@]1(c2ccccc2)NC(=O)N(Cc2ccccc2)C1=O,0.55,,,,0.99,0.93,,0.95,0.86,0.84,0.82,0.94,0.07,,0.7,,0.58,-0.81,0.5,-0.93,"Growth Rate (HEK-293T; 12 h, replicate number 2): 0.77"
O=C(Nc1ccc(N2CCC(C(=O)N3CCOCC3)CC2)cc1)c1cnc(Oc2ccccc2)nc1,0.96,,,,,-0.09,0.64,0.92,,0.95,,,0.75,0.95,0.87,0.99,0.78,,-0.91,0.98,"Growth Rate (HEK-293T; 6 h, replicate number 1): -0.02"
CC(C)Oc1ccc(F)c(-c2cnc(N)c(C(=O)Nc3cnccc3N3CCC[C@@H](C(=O)O)C3)n2)c1,,,,0.84,,0.37,-0.19,-0.11,-0.06,-0.01,0.05,0.44,,,0.97,,0.61,-0.44,,-1,"Growth Rate (HEK-293T; 6 h, replicate number 2): 0.61; Growth Rate (HEK-293T; 12 h, replicate number 2): -0.28"
CC1(C)Oc2ncnc(N)c2N=C1c1ccc([C@H]2CC[C@H](CC(=O)O)CC2)cc1,0.57,0.89,0.85,0.96,,-0.22,,0.89,,0.94,0.99,-0.99,,,,,0.97,-0.4,-0.9,0.56,"Growth Rate (U2OS; 0 h, replicate number 1): 0.58; Growth Rate (U2OS; 6 h, replicate number 2): 0.92; Growth Rate (HEK-293T; 6 h, replicate number 1): 0.77; Growth Rate (HEK-293T; 6 h, replicate number 2): 0.36; Growth Rate (Fibroblast; 12 h, replicate number 1): 0.81"
O=C1CCC(N2Cc3cc(CNC(=O)C(F)(F)c4ccc(Cl)cc4)ccc3C2=O)C(=O)N1 (configuration not stated),0.81,0.98,,0.99,0.85,0.81,0.83,0.81,1,0.89,,,0.51,,0.98,,0.99,0.39,,,"Growth Rate (U2OS; 6 h, replicate number 2): 0.89; Growth Rate (U2OS; 12 h, replicate number 1): 0.97"
C=CC(=O)Nc1cccc(C(=O)Nc2ccc(NC(=O)c3cccc(-c4ccn[nH]4)n3)cc2)c1,,,,,0.92,0.5,,0.81,0.59,,0.55,0,,,,,,-0.56,,-0.7,"Growth Rate (U2OS; 0 h, replicate number 1): -0.99; Growth Rate (HEK-293T; 6 h, replicate number 1): 0.54; Growth Rate (HEK-293T; 6 h, replicate number 2): 0.82; Growth Rate (HEK-293T; 12 h, replicate number 2): 0.37"
CCCCC/C=C/C=C1/C(=O)C=C[C@@H]1C/C=C\CCCC(=O)O,,0.62,0.74,0.68,0.85,-0.01,0.88,0.89,0.98,0.86,0.94,,0.93,0.94,0.89,0.72,0.7,-0.2,-0.86,0.99,"Growth Rate (U2OS; 6 h, replicate number 2): 0.82; Growth Rate (U2OS; 18 h, replicate number 2): 0.7; Growth Rate (HEK-293T; 12 h, replicate number 2): 0.95"
COc1cc(C(C)C)c(Oc2cnc(NC(CO)CO)nc2N)cc1I,0.05,1,0.97,0.83,,0.85,,,0.82,,0.89,,0.88,,0.94,1,,-0.32,0.81,-0.93,"Growth Rate (U2OS; 12 h, replicate number 1): 0.93; Growth Rate (HEK-293T; 6 h, replicate number 2): 0.97; Growth Rate (HEK-293T; 12 h, replicate number 2): 0.76; Growth Rate (Fibroblast; 6 h, replicate number 2): 0.67"
CO[C@H](C)CN1CC[C@]2(C)c3cccc(O)c3C[C@H]1C2(C)C.Cl,0.44,0.71,0.92,0.84,0.92,-0.19,,,,,,-1,,,,0.9,,-0.73,-0.48,,"Growth Rate (U2OS; 6 h, replicate number 2): 0.57; Growth Rate (U2OS; 12 h, replicate number 1): 0.7; Growth Rate (U2OS; 18 h, replicate number 2): 0.84"
Cc1cc(CN)cc(C)c1-c1ncn(C)c1-c1ccnc2cc(F)ccc12.Cl,0.34,,,,,0.04,,,,,,-1,,0.6,0.81,0.89,0.96,,-0.39,0.02,"Growth Rate (U2OS; 6 h, replicate number 2): 0.85; Growth Rate (U2OS; 12 h, replicate number 1): 0.92; Growth Rate (HEK-293T; 6 h, replicate number 1): 0.92; Growth Rate (Fibroblast; 6 h, replicate number 2): -0.26; Growth Rate (Fibroblast; 12 h, replicate number 1): 0.77"
Cl.Cl.N=C(N)NCCC[C@H](NC(=O)CC1(CC(=O)N2CCN(C3c4ccccc4NC(=O)c4ccccc43)CC2)CCCC1)C(=O)NCCn1c(=O)n(-c2ccccc2)n(-c2ccccc2)c1=O (some centres not stated),0.65,0.78,0.83,0.73,0.99,-0.2,,,,,,,,0.59,,0.6,,0.1,0.97,0.27,"Growth Rate (U2OS; 0 h, replicate number 1): 0.38; Growth Rate (U2OS; 6 h, replicate number 2): 0.78; Growth Rate (U2OS; 12 h, replicate number 1): 0.69; Growth Rate (U2OS; 18 h, replicate number 2): 0.87; Growth Rate (HEK-293T; 6 h, replicate number 1): 0.47; Growth Rate (Fibroblast; 12 h, replicate number 1): 0.91"
